Data reported in patent US8404866B2, “Substituted heterocyclic mercaptosulfonamide metalloprotease inhibitors” (Florida State University Research Foundation, priority 2008, dated 2013).
Where a name gives a salt, the structure may show the parent alone.

Legend:
[1] = target: MMP-9 (HNG; human neutrophil gelatinase) (Homo sapiens, UniProt P14780); test: Enzyme kinetic assay, inhibition of MMP-9; type: biochemical; details: read-out: Ki (value in parentheses), HNG MMP-9
Description: (§1) The following protocol was used to obtain the data found in the following table. Materials: The fluorescent peptide substrates for matrix metalloproteinases (MMPs) used were purchased from Bachem Chem. Co. The metal salts and Brij-35 were purchased from Fisher Scientific Inc. All other chemicals were purchased from Sigma-Aldrich Chem. Co. The sources and biochemical characterizations of multiple MMPs, including MMP-1/human fibroblast collagenase (HFC), MMP-2/human fibroblast gelatinase (HFG), MMP-8/human neutrophil collagenase (HNC), and MMP-9/human neutrophil gelatinase (HNG), MMP-7/human matrilysin (MLN), MMP-3/human fibroblast stromelysin-1 (HFS), human recombinant catalytic domain of membrane-type 1 matrix metalloproteinase (cdMT1-MMP), catalytic domain of MMP-12/metalloelastase (cdMET), and MMP-26/human endometase (EDM) were described previously (Sang, Q. X., Birkedal-Hansen, H., and Van Wart, H. E. Proteolytic and non-proteolytic activation of human neutrophil progelatinase B. Biochim. Biophys. Acta. 1995; 1251, 99-108; Sang, Q. A., Bodden, M. K., and Windsor, L. J. Activation of human progelatinase A by collagenase and matrilysin: activation of procollagenase by matrilysin. J. Protein. Chem. 1996; 15, 243-253; Li, H., Bauzon, D. E., Xu, X., Tschesche, H., Cao, J., and Sang, Q.-X. A. Immunological characterization of cell-surface and soluble forms of membrane type 1 matrix metalloproteinase in human breast cancer cells and in fibroblasts. Molec. Carcinog. 1998; 22, 84-94; Park, H. I., Ni, J., Gerkema, F. E., Liu, D., Belozerov, V. E., and Sang, Q.-X. A. Identification and characterization of human endometase (Matrix metalloproteinase-26) from endometrial tumor. J. Biol. Chem., 2000; 275, 20540-20544). The active concentrations of MMPs were determined by titration with GM6001, a tight-binding MMP inhibitor, as described previously (Park, H. I., Turk, B. E., Gerkema, F. E., Cantley, L. C., and Sang, Q.-X. A. Peptide substrate specificities and protein cleavage sites of human endometase/matrilysin-2/matrix metalloproteinase-26. J. Biol. Chem. 2002; 277, 35168-35175).
(§2) The active inhibitor concentrations were estimated by titrating the mercapto group with 5,5′-dithiobis(2-nitrobenzoic acid) (DTNB; Ellman's reagent) as described previously (Ellman, G. L. A colorimetric method for determining low concentrations of mercaptans. Arch. Biochem. Biophys. 1958; 74, 443-450; Ellman, G. L. Tissue sulfhydryl groups. Arch. Biochem. Biophys. 1959; 82, 70-77; Riddles, P. W., Blakeley, R. L., and Zerner, B. Ellman's reagent: 5,5′-dithiobis(2-nitrobenzoic acid)—a reexamination. Anal. Biochem. 1979; 94, 75-81). Briefly, the reaction of DTNB with the mercapto group produces 2-nitro-5-thiobenzoic acid (TNB). The concentration of TNB is then measured by monitoring the absorbance at 412 nm. Cysteine was used to generate the standard curve with a molar extinction coefficient of 14,000±500 M^−1 cm^−1, which is close to the value in the literature (Riddles, P. W., Blakeley, R. L., and Zerner, B. Ellman's reagent: 5,5′-dithiobis(2-nitrobenzoic acid)—a reexamination. Anal. Biochem. 1979; 94, 75-81).
(§3) The substrate Mca-PLGLDpaAR-NH2 was used to measure inhibition constants (Knight, C. G., Willenbrock. F., and Murphy, G. A novel coumarin-labelled peptide for sensitive continuous assays of the matrix metalloproteinases. FEBS Lett. 1992; 296, 263-266). Enzymatic assays were performed at 25° C. in 50 mM HEPES buffer at pH 7.5 in the presence of 10 mM CaCl2, 0.2 M NaCl, and 0.01% or 0.05% Brij-35 with substrate concentrations of 1 μM. The release of product was monitored by measuring fluorescence (excitation and emission wavelengths of 328 nm and 393 nm, respectively) with a Perkin Elmer Luminescence Spectrophotometer LS 50B connected to a temperature controlled water bath. All stock solutions of inhibitors were in dimethyl sulfoxide. […]

[2] = target: T1, MMP-2 (HFG; human fibroblast gelatinase) (Homo sapiens, UniProt P08253); test: Enzyme kinetic assay, inhibition of MMP-2; type: biochemical; details: read-out: Ki (value in parentheses), HFG MMP-2
T1 sequence (P08253 110-660): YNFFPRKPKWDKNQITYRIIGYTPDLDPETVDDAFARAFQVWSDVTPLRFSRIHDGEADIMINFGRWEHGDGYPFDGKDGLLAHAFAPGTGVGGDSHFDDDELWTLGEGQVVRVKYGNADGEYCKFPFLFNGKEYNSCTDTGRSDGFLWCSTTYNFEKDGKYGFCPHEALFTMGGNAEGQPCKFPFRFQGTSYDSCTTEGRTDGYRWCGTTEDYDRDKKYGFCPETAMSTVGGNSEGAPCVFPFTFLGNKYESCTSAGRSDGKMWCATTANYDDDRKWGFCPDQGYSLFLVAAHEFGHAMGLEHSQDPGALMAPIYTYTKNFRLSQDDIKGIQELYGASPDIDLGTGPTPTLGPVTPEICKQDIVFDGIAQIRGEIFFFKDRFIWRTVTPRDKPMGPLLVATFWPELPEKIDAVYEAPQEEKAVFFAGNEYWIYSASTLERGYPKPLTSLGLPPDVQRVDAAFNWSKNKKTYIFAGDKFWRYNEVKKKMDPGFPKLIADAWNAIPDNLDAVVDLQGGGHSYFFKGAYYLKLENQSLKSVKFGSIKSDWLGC
Description: as §1, §2, §3

[3] = target: T2, MMP-1 (HFC; human fibroblast collagenase) (Homo sapiens, UniProt P03956); test: Enzyme kinetic assay, inhibition of MMP-1; type: biochemical; details: 25° C., pH 7.5, substrate 1 μM; read-out: IC50 (value without parentheses), HFC MMP-1
T2 sequence (P03956 100-469): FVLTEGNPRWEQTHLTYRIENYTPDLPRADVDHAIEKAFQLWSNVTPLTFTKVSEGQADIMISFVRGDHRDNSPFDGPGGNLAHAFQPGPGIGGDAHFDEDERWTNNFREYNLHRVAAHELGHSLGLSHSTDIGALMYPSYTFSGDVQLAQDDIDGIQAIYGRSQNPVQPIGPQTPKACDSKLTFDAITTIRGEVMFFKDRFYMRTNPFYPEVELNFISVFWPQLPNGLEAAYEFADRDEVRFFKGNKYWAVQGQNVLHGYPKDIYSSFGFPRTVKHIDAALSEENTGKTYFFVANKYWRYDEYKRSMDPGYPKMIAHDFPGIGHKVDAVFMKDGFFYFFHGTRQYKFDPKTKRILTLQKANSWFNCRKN
Description: as §1, §2, §3

[4] = target: MMP-3 (HFS; human fibroblast stromelysin-1) (Homo sapiens, UniProt P08254); test: Enzyme kinetic assay, inhibition of MMP-3; type: biochemical; details: read-out: Ki (value in parentheses), HFS MMP-3
MMP-3 (HFS; human fibroblast stromelysin-1), sequence (P08254 100-477): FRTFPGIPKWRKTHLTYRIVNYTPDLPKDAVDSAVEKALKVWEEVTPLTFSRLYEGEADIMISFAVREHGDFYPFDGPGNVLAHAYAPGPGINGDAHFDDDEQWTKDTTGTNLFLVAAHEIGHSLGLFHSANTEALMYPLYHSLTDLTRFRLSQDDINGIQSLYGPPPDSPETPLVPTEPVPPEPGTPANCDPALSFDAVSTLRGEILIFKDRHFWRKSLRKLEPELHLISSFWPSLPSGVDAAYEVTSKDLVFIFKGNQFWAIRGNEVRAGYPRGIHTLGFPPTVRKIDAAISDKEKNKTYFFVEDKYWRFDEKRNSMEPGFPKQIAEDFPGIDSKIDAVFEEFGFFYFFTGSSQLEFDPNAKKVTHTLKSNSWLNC
Description: as §1, §2, §3

kidneys = details: given prior to disease induction; cited from earlier work
EAN animal model = details: cited from earlier work
[5] = tested on: experimental autoimmune uveitis; details: cited from earlier work
brain = details: following hemorrhage; cited from earlier work
blood-brain barrier = details: ischemia reperfusion model in the rat; cited from earlier work
EAE animal model = details: administered daily from disease induction or from onset of clinical signs; cited from earlier work
stented arteries = details: compared to placebo; cited from earlier work
lethal acute GVHD = details: mouse model of lethal acute GVHD; cited from earlier work
insulin resistance = details: mouse model of insulin resistance; cited from earlier work

MMP-9 (HNG; human neutrophil gelatinase), sequence (P14780 94-707): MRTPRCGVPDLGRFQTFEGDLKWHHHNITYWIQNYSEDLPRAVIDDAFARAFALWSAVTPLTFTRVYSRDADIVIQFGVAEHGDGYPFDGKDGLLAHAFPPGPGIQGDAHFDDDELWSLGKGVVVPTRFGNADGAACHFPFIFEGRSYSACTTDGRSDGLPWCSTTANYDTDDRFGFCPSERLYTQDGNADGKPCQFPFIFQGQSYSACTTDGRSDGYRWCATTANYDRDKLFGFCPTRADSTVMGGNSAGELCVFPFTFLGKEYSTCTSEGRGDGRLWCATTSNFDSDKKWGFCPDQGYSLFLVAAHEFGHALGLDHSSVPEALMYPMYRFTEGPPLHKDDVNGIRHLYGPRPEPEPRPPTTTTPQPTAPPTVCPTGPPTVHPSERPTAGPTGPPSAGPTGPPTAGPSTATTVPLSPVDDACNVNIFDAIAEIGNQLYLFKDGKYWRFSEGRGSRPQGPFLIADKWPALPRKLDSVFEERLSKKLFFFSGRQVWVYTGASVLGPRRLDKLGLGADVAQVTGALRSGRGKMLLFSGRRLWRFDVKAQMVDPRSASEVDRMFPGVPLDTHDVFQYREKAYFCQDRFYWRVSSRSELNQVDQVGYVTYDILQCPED

Ki [1] [nM] | Ki [2] [nM] | IC50 [3] [nM] | Ki [4] [nM] | SMILES | also measured
2200 | 800 | > 3000 | 3400 | O=C(OCc1ccccc1)N1C[C@@H](S)[C@@H](NS(=O)(=O)c2ccc(Oc3ccccc3)cc2)C1 [Example 14, (3S,4R)—N-Cbz-3-(4-Phenoxybenzenesulfonamido)-4-mercaptopyrrolidine] | 
 |  |  |  | C=CC[C@H](C(=O)NO)[C@@H](CC(C)C)C(=O)N[C@@H](Cc1ccccc1)C(=O)NC [BB-1101] | inflammatory response and damage (kidneys): significantly reduced; EAN symptoms, inflammation, demyelination, weight loss (EAN animal model; given from the initiation of EAN): prevented the development of symptoms and reduced inflammation, demyelination, and weight loss; EAN disease severity (EAN animal model; given from the onset of symptoms): significantly reduced disease severity; retinal damage [5]: shown to reduce retinal damage; secondary brain edema (brain): reduces; early phases of blood-brain barrier leakage (blood-brain barrier): reduces
230 | 49 | 6300 | 1600 | O=S(=O)(N[C@@H]1CNC[C@H]1S)c1ccc(Oc2ccccc2)cc1 [Example 11, (3R,4R)-3-(4-Phenoxybenzenesulfonamido)-4-mercaptopyrrolidine Hydrochloride] | 
210 | 38 | 50000 | 5900 | O=S(=O)(N[C@H]1CNC[C@@H]1S)c1ccc(Oc2ccccc2)cc1 [Example 10, (3S,4S)-3-(4-Phenoxybenzenesulfonamido)-4-mercaptopyrrolidine Hydrochloride] | 
3100 | 1800 | ~125000 | 5400 | O=C(OCc1ccccc1)N1C[C@H](S)[C@H](NS(=O)(=O)c2ccc(Oc3ccccc3)cc2)C1 [Example 13, (3R,4S)—N-Cbz-3-(4-Phenoxybenzenesulfonamido)-4-mercaptopyrrolidine] | 
 |  |  |  | CNC(=O)[C@H](Cc1c[nH]c2ccccc12)NC(=O)[C@@H](CC(=O)NO)CC(C)C [GM6001] | clinical signs of EAE (EAE animal model): suppressed the development or reversed clinical signs of EAE in a dose-dependent way; intimal hyperplasia and collagen content (stented arteries): significantly inhibited; lumen area (stented arteries): increasing the lumen area; rates of proliferation (stented arteries): without affecting the rates of proliferation
13 | 10 |  | 1700 | NC(=O)N1C[C@H](NS(=O)(=O)c2ccc(Oc3ccccc3)cc2)[C@@H](S)C1 [Example 12, (3S,4S)—N-Carbamoyl-3-(4-phenoxybenzene-sulfonamido)-4-mercaptopyrrolidine] | 
 |  |  |  | CNC(=O)[C@@H](NC(=O)[C@H](CC(C)C)[C@H](C)C(=O)NO)c1ccccc1 [KB-R7785] | mortality (lethal acute GVHD): reduced mortality; plasma glucose and insulin levels (insulin resistance): significant decrease
